In ChEMBL document CHEMBL1201862, “PubChem BioAssay data set” (2004):
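Results reflect a 48-hour exposure of cells in 96-well plates to compound at five concentrations. The concentration for 50% growth inhibition is given as GI50.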 Activity calls are given as the source filed them. Cut-off read from the data, not from the text of the source: active = GI50 up to about 1.1 µM and inactive = higher.

Experiments:
Test in all cases: NCI-60 cell line screen, 48 h
SF-295 = test system: SF-295
OVCAR-8 = test system: OVCAR-8
KM12 = test system: KM12
LOX IMVI = test system: LOX IMVI
NCI-H522 = test system: NCI-H522
MDA-N = test system: MDA-N
SNB-19 = test system: SNB-19
OVCAR-5 = test system: OVCAR-5
DU-145 = test system: DU-145
786-0 = test system: 786-0
ACHN = test system: ACHN
RPMI-8226 = test system: RPMI-8226
OVCAR-4 = test system: OVCAR-4
NCI-H23 = test system: NCI-H23
HOP-62 = test system: HOP-62
HCT-116 = test system: HCT-116
NCI/ADR-RES = test system: NCI/ADR-RES
T47D = test system: T47D
RXF 393 = test system: RXF 393
COLO 205 = test system: COLO 205
CCRF-CEM = test system: CCRF-CEM
HL-60 = test system: HL-60
PC-3 = test system: PC-3
SK-MEL-5 = test system: SK-MEL-5
SK-OV-3 = test system: SK-OV-3
SF-539 = test system: SF-539
K562 = test system: K562
OVCAR-3 = test system: OVCAR-3
U-251 = test system: U-251
SK-MEL-28 = test system: SK-MEL-28
SNB-75 = test system: SNB-75
HCC 2998 = test system: HCC 2998
SW-620 = test system: SW-620
A549 = test system: A549
EKVX = test system: EKVX
HT-29 = test system: HT-29
MOLT-4 = test system: MOLT-4
UACC-257 = test system: UACC-257
MCF7 = test system: MCF7
SK-MEL-2 = test system: SK-MEL-2
MDA-MB-231 = test system: MDA-MB-231
Malme-3M = test system: Malme-3M
M14 = test system: M14
HOP-92 = test system: HOP-92
CAKI-1 = test system: CAKI-1
MDA-MB-435 = test system: MDA-MB-435
NCI-H226 = test system: NCI-H226
UACC-62 = test system: UACC-62
HCT-15 = test system: HCT-15
UO-31 = test system: UO-31
IGROV-1 = test system: IGROV-1
TK-10 = test system: TK-10
SN12C = test system: SN12C
A498 = test system: A498
SR = test system: SR

SMILES: CCN(CC)CCCNc1nc(=O)[nH]c(C)c1C(=O)Nc1ccc2c(c1)c1ccccc1n2CC
- GI50 (SF-295): > 100 µM (inactive)
- GI50 (OVCAR-8): > 100 µM (inactive)
- GI50 (KM12): > 100 µM (inactive)
- GI50 (LOX IMVI): > 100 µM (inactive)
- GI50 (NCI-H522): > 100 µM (inactive)
- GI50 (MDA-N): > 100 µM (inactive)
- GI50 (SNB-19): > 100 µM (inactive)
- GI50 (OVCAR-5): > 100 µM (inactive)
- GI50 (DU-145): > 100 µM (inactive)
- GI50 (786-0): > 100 µM (inactive)
- GI50 (ACHN): > 100 µM (inactive)
- GI50 (RPMI-8226): > 100 µM (inactive)
- GI50 (OVCAR-4): > 100 µM (inactive)
- GI50 (NCI-H23): > 100 µM (inactive)
- GI50 (HOP-62): > 100 µM (inactive)
- GI50 (HCT-116): > 100 µM (inactive)
- GI50 (NCI/ADR-RES): > 100 µM (inactive)
- GI50 (T47D): > 100 µM (inactive)
- GI50 (RXF 393): > 100 µM (inactive)
- GI50 (COLO 205): > 100 µM (inactive)
- GI50 (CCRF-CEM): > 100 µM (inactive)
- GI50 (HL-60): > 100 µM (inactive)
- GI50 (PC-3): > 100 µM (inactive)
- GI50 (SK-MEL-5): > 100 µM (inactive)
- GI50 (SK-OV-3): > 100 µM (inactive)
- GI50 (SF-539): > 100 µM (inactive)
- GI50 (K562): > 100 µM (inactive)
- GI50 (OVCAR-3): > 100 µM (inactive)
- GI50 (U-251): > 100 µM (inactive)
- GI50 (SK-MEL-28): > 100 µM (inactive)
- GI50 (SNB-75): > 100 µM (inactive)
- GI50 (HCC 2998): > 100 µM (inactive)
- GI50 (SW-620): > 100 µM (inactive)
- GI50 (A549): > 100 µM (inactive)
- GI50 (EKVX): > 100 µM (inactive)
- GI50 (HT-29): > 100 µM (inactive)
- GI50 (MOLT-4): > 100 µM (inactive)
- GI50 (UACC-257): > 100 µM (inactive)
- GI50 (MCF7): > 100 µM (inactive)
- GI50 (SK-MEL-2): > 100 µM (inactive)
- GI50 (MDA-MB-231): > 100 µM (inactive)
- GI50 (Malme-3M): > 100 µM (inactive)
- GI50 (M14): > 100 µM (inactive)
- GI50 (HOP-92): > 100 µM (inactive)
- GI50 (CAKI-1): > 100 µM (inactive)
- GI50 (MDA-MB-435): > 100 µM (inactive)
- GI50 (NCI-H226): > 100 µM (inactive)
- GI50 (UACC-62): > 100 µM (inactive)
- GI50 (HCT-15): > 100 µM
- GI50 (UO-31): > 100 µM (inactive)
- GI50 (IGROV-1): > 100 µM (inactive)
- GI50 (TK-10): > 100 µM (inactive)
- GI50 (SN12C): > 100 µM (inactive)

SMILES: CCCCCCCCCCCCCCCCCCOC[C@H](COP(=O)(O)O[C@H]1[C@H](O)[C@@H](O)[C@H](O)C[C@H]1O)OC
- GI50 (RPMI-8226): 22.1 µM (inactive)
- GI50 (A498): > 100 µM (inactive)
- GI50 (SNB-75): 19.2 µM (inactive)
- GI50 (SR): 15.8 µM (inactive)
